According to patent US4791139A, “Diphenyl ether derivatives and their use as insecticides” (Imperial Chemical Industries PLC, priority 1986, dated 1988):

Columns and labels:
Type in all cases: in vivo
[1] = test system: Musca domestica (houseflies - adults); assay: Knockdown test, houseflies - adults (MD/KD), Cotton wool/sugar; details: 4 hours, read-out: MD/KD grading of knockdown
Protocol: (§1) The activity of the Product was determined using a variety of insect pests. The Product was used in the form of liquid preparations containing from 100 to 500 parts per million (ppm) by weight of the Product. The preparations were made by dissolving the Product in acetone and diluting the solutions with water containing 0.1% by weight of a wetting agent sold under the trade name "SYNPERONIC" NX until the liquid preparations contained the required concentration of the Product. "SYNPERONIC" is a Registered Trade Mark.
(§2) The test procedure adopted with regard to each pest was basically the same and comprised supporting a number of the pests on a medium which was usually a host plant or a foodstuff on which the pests feed, and treating either or both the pests and the medium with the preparations. The mortality of the pests was then assessed at periods usually varying from one to seven days after the treatment.
In the case of the species Musca domestica (housefly), an additional assessment to determine the knockdown effect of the compounds was performed.
(§3) In Table III the pest organism used is designated by a letter code and the pests species, the support medium or food, and the type and duration of test is given in Table II.

[2] = test system: Tetranychus urticae (spider mites - ova); assay: Contact test, spider mites - ova (TUe), French bean leaf; details: 144 h, 6 days, read-out: TUE grading of mortality
Protocol: as §1, with “Mark. The test procedure adopted with regard to each pest was basically the same and comprised supporting a number of the pests on a medium which was usually a host plant or a foodstuff on which the pests feed, and treating either or both the pests and the medium with the preparations. The mortality of the pests was then assessed at periods usually varying from one to seven days after the treatment.” for “Mark.”

[3] = test system: Heliothis virescens (tobacco budworm - larvae); assay: Residual test, tobacco budworm - larvae (HV), Cotton leaf; details: 72 h, read-out: HV grading of mortality
Protocol: as §1, §2
(§4) The results of the tests are given in Table III for each of the Products, at the rate in parts per million given in the second column as a grading of mortality designated as A, B or C wherein A indicates 80-100% mortality or knockdown (70-100% for Meloidogyne incognita), B indicates 50-79% mortality knockdown or knockdown (50-69% for Meloidogyne incognita) and C indicates less than 50% mortality or knockdown.
as §3
(tobacco budworm - larvae)

[4] = test system: Tetranychus urticae (spider mites - adult); assay: Contact test, spider mites - adult (TUa), French bean leaf; details: 72 h, 3 days, read-out: TUA grading of mortality
Protocol: as §1, with “Mark. The test procedure adopted with regard to each pest was basically the same and comprised supporting a number of the pests on a medium which was usually a host plant or a foodstuff on which the pests feed, and treating either or both the pests and the medium with the preparations. The mortality of the pests was then assessed at periods usually varying from one to seven days after the treatment.” for “Mark.”

[5] = test system: Musca domestica (houseflies - adults); assay: Contact test, houseflies - adults (MD), Cotton wool/sugar; details: 24 h, 1 day, read-out: MD grading of mortality
Protocol: as §1, with “Mark. The test procedure adopted with regard to each pest was basically the same and comprised supporting a number of the pests on a medium which was usually a host plant or a foodstuff on which the pests feed, and treating either or both the pests and the medium with the preparations. The mortality of the pests was then assessed at periods usually varying from one to seven days after the treatment.” for “Mark.”

[6] = test system: Diabrotica balteata (rootworm larvae); assay: Residual test, rootworm larvae (DB), Filter paper/maize seed; details: 72 h, 3 days, read-out: DB grading of mortality
Protocol: as §1, with “Mark. The test procedure adopted with regard to each pest was basically the same and comprised supporting a number of the pests on a medium which was usually a host plant or a foodstuff on which the pests feed, and treating either or both the pests and the medium with the preparations. The mortality of the pests was then assessed at periods usually varying from one to seven days after the treatment.” for “Mark.”

[7] = test system: Blattella germanica (cockroach nymphs); assay: Residual test, cockroach nymphs (BG), Plastic pot; details: 72 h, 3 days, read-out: BG grading of mortality
Protocol: as §1, with “Mark. The test procedure adopted with regard to each pest was basically the same and comprised supporting a number of the pests on a medium which was usually a host plant or a foodstuff on which the pests feed, and treating either or both the pests and the medium with the preparations. The mortality of the pests was then assessed at periods usually varying from one to seven days after the treatment.” for “Mark.”

[8] = test system: Nilaparvata lugens (brown plant hopper - nymphs); assay: Contact test, brown plant hopper - nymphs (NL), Rice plant; details: 72 h, 3 days, read-out: NL grading of mortality
Protocol: as §1, with “Mark. The test procedure adopted with regard to each pest was basically the same and comprised supporting a number of the pests on a medium which was usually a host plant or a foodstuff on which the pests feed, and treating either or both the pests and the medium with the preparations. The mortality of the pests was then assessed at periods usually varying from one to seven days after the treatment.” for “Mark.”

[9] = test system: Spodoptera exigua (lesser army worm - larvae); assay: Residual test, lesser army worm - larvae (SP), Cotton leaf; details: 72 h, 3 days, read-out: SP grading of mortality
Protocol: as §1, §2, §4, §3
(lesser army worm - larvae)

Myzus persicae (aphids) = assay: Contact test, aphids (MP), Chinese Cabbage leaf; details: 72 h, 3 days, read-out: MP grading of mortality
Protocol: The activity of the Product was determined using a variety of insect pests. The Product was used in the form of liquid preparations containing from 100 to 500 parts per million (ppm) by weight of the Product. The preparations were made by dissolving the Product in acetone and diluting the solutions with water containing 0.1% by weight of a wetting agent sold under the trade name "SYNPERONIC" NX until the liquid preparations contained the required concentration of the Product. "SYNPERONIC" is a Registered Trade Mark. The test procedure adopted with regard to each pest was basically the same and comprised supporting a number of the pests on a medium which was usually a host plant or a foodstuff on which the pests feed, and treating either or both the pests and the medium with the preparations. The mortality of the pests was then assessed at periods usually varying from one to seven days after the treatment. […] In Table III the pest organism used is designated by a letter code and the pests species, the support medium or food, and the type and duration of test is given in Table II.

[10] = test system: Meloidogyne incognita (Tomato root knot eelworm - larvae); assay: Residual test, Tomato root knot eelworm - larvae (MI), Semi in-vitro; details: 168 h, application rate is half that recorded, 7 days, read-out: MI grading of mortality; for mortality at 125 µg/mL: rate 250 ppm; for mortality at 250 µg/mL: rate column 500 ppm

| Structure (SMILES) | pest or weed control at 250 ppm [1] [%] | mortality at 250 ppm [2] [%] | mortality at 250 ppm [3] [%] | mortality at 250 ppm [4] [%] | mortality at 250 ppm [5] [%] | mortality at 250 ppm [6] [%] | mortality at 250 ppm [7] [%] | mortality at 250 ppm [8] [%] | mortality at 250 ppm [9] [%] | pest or weed control at 500 ppm [1] [%] | mortality at 500 ppm [2] [%] | mortality at 500 ppm [3] [%] | mortality at 500 ppm [4] [%] | mortality at 500 ppm [5] [%] | mortality at 500 ppm [6] [%] | mortality at 500 ppm [7] [%] | mortality at 500 ppm [8] [%] | mortality at 500 ppm [9] [%] | mortality at 500 ppm (Myzus persicae (aphids)) [%] | mortality at 250 µg/mL [10] [%] | also measured |
| --- | --- | --- | --- | --- | --- | --- | --- | --- | --- | --- | --- | --- | --- | --- | --- | --- | --- | --- | --- | --- | --- |
| FC(F)(F)C(CCCc1cccc(Oc2ccccc2)c1)c1ccc2c(c1)CCC2 (racemic) [Compound 52, 1,1,1-Trifluoro-2-(5-indanyl)-5-(3-phenoxyphenyl)pentane] | < 50 | < 50 | 80 to 100 | 80 to 100 | 50 to 79 | < 50 | 80 to 100 | 80 to 100 | 80 to 100 | – | – | – | – | – | – | – | – | – | – | – | mortality at 250 ppm (Myzus persicae (aphids)): 50 to 79%; mortality at 125 µg/mL [10]: < 50% |
| Fc1ccc(C(CCCc2cccc(Oc3ccccc3)c2)C(F)(F)F)cc1 (racemic) [Compound 53, 1,1,1-Trifluoro-2-(4-fluorophenyl)-5-(3-phenoxyphenyl)pentane] | < 50 | < 50 | 80 to 100 | 80 to 100 | 80 to 100 | 80 to 100 | 80 to 100 | 80 to 100 | 80 to 100 | – | – | – | – | – | – | – | – | – | – | – | mortality at 250 ppm (Myzus persicae (aphids)): 80 to 100%; mortality at 125 µg/mL [10]: < 50% |
| CCOc1ccc(C(CCC(C#N)c2cccc(Oc3ccccc3)c2)C(F)(F)F)cc1 (racemic) [Compound 54, 1,1,1-Trifluoro-2-(4-ethoxyphenyl)-5-cyano-5-(3-phenoxyphenyl)pentane] | – | – | – | – | – | – | – | – | – | 80 to 100 | < 50 | 80 to 100 | < 50 | 80 to 100 | < 50 | < 50 | 80 to 100 | 80 to 100 | 80 to 100 | < 50 | – |
| CCOc1ccc(C(CCC(C)c2cccc(Oc3ccccc3)c2)C(F)(F)F)cc1 (racemic) [Compound 55, 1,1,1-Trifluoro-2-(4-ethoxyphenyl)-5-(3-phenoxyphenyl)hexane] | – | – | – | – | – | – | – | – | – | 80 to 100 | < 50 | 80 to 100 | < 50 | 80 to 100 | 50 to 79 | 80 to 100 | 80 to 100 | 80 to 100 | 80 to 100 | < 50 | – |
| CCOc1ccc(C(CCCc2cccc(Oc3ccccc3)c2)C(F)(F)F)cc1F (racemic) [Compound 56, 1,1,1-Trifluoro-2-(3-fluoro-4-ethoxyphenyl)-5-(3-phenoxyphenyl)pentane] | – | – | – | – | – | – | – | – | – | 80 to 100 | 80 to 100 | 80 to 100 | 80 to 100 | 80 to 100 | 80 to 100 | 80 to 100 | 80 to 100 | 80 to 100 | 80 to 100 | < 50 | – |
| CCOc1c(F)cc(C(CCCc2cccc(Oc3ccccc3)c2)C(F)(F)F)cc1F (racemic) [Compound 57, 1,1,1-Trifluoro-2-(3,5-difluoro-4-ethoxyphenyl)-5-(3-phenoxyphenyl)pentane] | – | – | – | – | – | – | – | – | – | 80 to 100 | 80 to 100 | 80 to 100 | 80 to 100 | 80 to 100 | 80 to 100 | 80 to 100 | 80 to 100 | 80 to 100 | 80 to 100 | < 50 | – |
| OC(CCCc1cccc(Oc2ccccc2)c1)(c1ccc(OC(F)(F)F)cc1)C(F)(F)F (racemic) [Compound 59, 1,1,1-trifluoro-2-hydroxy-2-(4-trifluoromethoxyphenyl)-5-(3-phenoxyphenyl)pentane] | – | – | – | – | – | – | – | – | – | < 50 | < 50 | < 50 | 80 to 100 | < 50 | 80 to 100 | < 50 | 80 to 100 | < 50 | < 50 | < 50 | – |
| FC(F)(F)Oc1ccc(C(F)(CCCc2cccc(Oc3ccccc3)c2)C(F)(F)F)cc1 (racemic) [Compound 60, 1,1,1,2-tetrafluoro-2-(4-trifluoromethoxyphenyl)-5-(3-phenoxyphenyl)pentane] | 80 to 100 | 80 to 100 | 80 to 100 | 80 to 100 | 80 to 100 | 80 to 100 | 80 to 100 | 80 to 100 | 80 to 100 | – | – | – | – | – | – | – | – | – | – | – | mortality at 250 ppm (Myzus persicae (aphids)): 80 to 100%; mortality at 125 µg/mL [10]: < 50% |
| FC(F)(F)Oc1ccc(C(Cl)(CCCc2cccc(Oc3ccccc3)c2)C(F)(F)F)cc1 (racemic) [Compound 62, 1,1,1-trifluoro-2-chloro-2-(4-trifluoromethoxyphenyl)-5-(3-phenoxyphenyl)pentane] | < 50 | < 50 | < 50 | < 50 | < 50 | < 50 | < 50 | < 50 | < 50 | – | – | – | – | – | – | – | – | – | – | – | mortality at 250 ppm (Myzus persicae (aphids)): < 50%; mortality at 125 µg/mL [10]: < 50% |
| FC(F)C(F)(F)Oc1ccc(C(CCCc2cccc(Oc3ccccc3)c2)C(F)(F)F)cc1 (racemic) [Compound 63, 1,1,1-trifluoro-2-[4-(1,1,2,2-tetrafluoroethoxy)phenyl]-5-(3-phenoxyphenyl)pentane] | – | – | – | – | – | – | – | – | – | 80 to 100 | 80 to 100 | 80 to 100 | 80 to 100 | 80 to 100 | 80 to 100 | 80 to 100 | 80 to 100 | 80 to 100 | 80 to 100 | < 50 | – |
| CCOc1c(F)cc(C(CCCc2ccc(F)c(Oc3ccccc3)c2)C(F)(F)F)cc1F (racemic) [Compound 64, 1,1,1-Trifluoro-2-(3,5-difluoro-4-ethoxyphenyl)-5-(4-fluoro-3-phenoxyphenyl)pentane] | – | – | – | – | – | – | – | – | – | 80 to 100 | 80 to 100 | 80 to 100 | 80 to 100 | 80 to 100 | 50 to 79 | 80 to 100 | 80 to 100 | 80 to 100 | 80 to 100 | < 50 | – |
